This passage reports IC50 results from US9580416B2, “Inhibitors of Bruton's tyrosine kinase” (PHARMACYCLICS LLC, priority 2014, dated 2017).

Common to all, as to type: biochemical
The target in experiment [1] is Btk (Homo sapiens, UniProt Q06187). The experiment can be described thus: Btk kinase activity, TR-FRET assay. Conditions: read-out: Btk (IC50). In a few lines: (§1)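 Enzyme (Btk 0.5 nM; Lck 6 nM) reacted 1 h with inhibitor, ATP at Km and biotin-peptide substrate in pH 7.4 buffer, 10% DMSO. Phosphopeptide detected by Eu-p-Tyr100 antibody plus streptavidin-APC (665/615 nm). IC50 calculated from fitted Ki(app) via ATP/Km correction plus half total enzyme.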

For experiment [2], the target named is Lck (Homo sapiens, UniProt P06239). The experiment can be described thus: Lck kinase activity, TR-FRET assay. Conditions: read-out: LCK (IC50). The method in brief:
as §1

The target in experiment [3] is EGFR (Homo sapiens, UniProt P00533). The experiment can be described thus: Inhibition of a panel of kinases, in vitro HotSpot kinase assay: EGFR. The protocol:
(§2) The degree of inhibition of a panel of kinases is determined using the in vitro HotSpot kinase assay (purified enzymes, ^33P-ATP, an appropriate substrate and 1 uM ATP).

For experiment [4], the target named is T1, JAK3 (Homo sapiens, UniProt P52333).
T1 sequence (P52333 1-1124): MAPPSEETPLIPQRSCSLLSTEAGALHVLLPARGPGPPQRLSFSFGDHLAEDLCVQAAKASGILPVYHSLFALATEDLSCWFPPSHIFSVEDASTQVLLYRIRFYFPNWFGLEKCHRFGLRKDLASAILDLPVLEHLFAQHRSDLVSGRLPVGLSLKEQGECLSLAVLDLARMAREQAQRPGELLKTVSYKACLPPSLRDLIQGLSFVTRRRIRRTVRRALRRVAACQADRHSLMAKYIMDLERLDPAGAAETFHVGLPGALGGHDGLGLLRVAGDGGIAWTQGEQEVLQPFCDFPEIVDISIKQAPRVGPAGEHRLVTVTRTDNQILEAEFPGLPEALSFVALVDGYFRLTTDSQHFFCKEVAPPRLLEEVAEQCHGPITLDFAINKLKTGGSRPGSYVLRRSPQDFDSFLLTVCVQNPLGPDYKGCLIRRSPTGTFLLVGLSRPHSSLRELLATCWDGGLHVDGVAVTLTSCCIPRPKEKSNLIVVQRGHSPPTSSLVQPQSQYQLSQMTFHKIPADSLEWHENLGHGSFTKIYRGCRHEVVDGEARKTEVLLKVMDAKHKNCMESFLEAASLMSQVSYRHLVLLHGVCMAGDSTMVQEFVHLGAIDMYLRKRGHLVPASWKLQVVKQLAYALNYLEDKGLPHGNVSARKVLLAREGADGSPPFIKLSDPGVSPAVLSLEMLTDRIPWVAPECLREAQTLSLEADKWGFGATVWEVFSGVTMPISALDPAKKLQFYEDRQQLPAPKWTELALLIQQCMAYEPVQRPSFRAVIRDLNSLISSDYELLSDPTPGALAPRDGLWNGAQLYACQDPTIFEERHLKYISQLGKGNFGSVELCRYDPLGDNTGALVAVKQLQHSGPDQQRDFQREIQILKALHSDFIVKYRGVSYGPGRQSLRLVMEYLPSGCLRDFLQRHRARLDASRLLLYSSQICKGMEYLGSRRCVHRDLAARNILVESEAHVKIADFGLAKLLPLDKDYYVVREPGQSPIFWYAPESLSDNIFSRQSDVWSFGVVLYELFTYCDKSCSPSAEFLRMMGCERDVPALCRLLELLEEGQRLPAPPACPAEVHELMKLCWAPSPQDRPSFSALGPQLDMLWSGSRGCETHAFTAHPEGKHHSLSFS
Put plainly: Inhibition of a panel of kinases, in vitro HotSpot kinase assay: JAK3. As for the experimental part:
as §2

Lck, sequence (P06239 whole entry, species assumed): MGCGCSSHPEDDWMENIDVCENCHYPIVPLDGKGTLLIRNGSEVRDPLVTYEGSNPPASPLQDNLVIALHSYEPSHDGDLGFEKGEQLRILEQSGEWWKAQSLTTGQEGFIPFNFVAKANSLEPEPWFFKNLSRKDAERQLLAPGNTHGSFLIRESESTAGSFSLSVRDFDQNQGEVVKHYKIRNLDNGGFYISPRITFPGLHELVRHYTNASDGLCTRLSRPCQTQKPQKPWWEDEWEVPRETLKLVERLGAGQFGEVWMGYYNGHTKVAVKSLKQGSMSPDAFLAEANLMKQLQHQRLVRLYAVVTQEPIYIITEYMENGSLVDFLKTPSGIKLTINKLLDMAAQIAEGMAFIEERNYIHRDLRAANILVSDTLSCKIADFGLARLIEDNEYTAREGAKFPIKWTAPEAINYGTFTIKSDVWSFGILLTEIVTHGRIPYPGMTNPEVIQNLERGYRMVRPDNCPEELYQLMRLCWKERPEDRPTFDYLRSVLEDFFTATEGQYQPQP
Btk, sequence (Q06187 whole entry): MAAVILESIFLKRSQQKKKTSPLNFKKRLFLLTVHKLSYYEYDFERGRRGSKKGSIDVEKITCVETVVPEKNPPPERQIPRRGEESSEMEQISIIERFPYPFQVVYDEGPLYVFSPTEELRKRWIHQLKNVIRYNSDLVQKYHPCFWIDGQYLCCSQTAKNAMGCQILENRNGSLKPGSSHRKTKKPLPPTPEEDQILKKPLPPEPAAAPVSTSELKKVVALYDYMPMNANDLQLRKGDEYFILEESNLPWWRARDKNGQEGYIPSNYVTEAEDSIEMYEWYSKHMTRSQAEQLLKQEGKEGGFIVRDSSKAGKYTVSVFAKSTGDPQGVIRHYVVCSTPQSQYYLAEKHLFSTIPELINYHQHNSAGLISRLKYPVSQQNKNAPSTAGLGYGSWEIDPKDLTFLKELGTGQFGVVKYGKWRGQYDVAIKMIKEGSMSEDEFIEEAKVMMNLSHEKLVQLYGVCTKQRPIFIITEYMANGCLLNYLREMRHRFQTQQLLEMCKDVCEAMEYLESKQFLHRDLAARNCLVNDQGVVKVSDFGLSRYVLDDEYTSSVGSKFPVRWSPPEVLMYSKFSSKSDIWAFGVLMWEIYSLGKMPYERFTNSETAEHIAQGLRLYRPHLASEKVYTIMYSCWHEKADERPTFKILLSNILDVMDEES
EGFR, sequence (P00533 25-1210): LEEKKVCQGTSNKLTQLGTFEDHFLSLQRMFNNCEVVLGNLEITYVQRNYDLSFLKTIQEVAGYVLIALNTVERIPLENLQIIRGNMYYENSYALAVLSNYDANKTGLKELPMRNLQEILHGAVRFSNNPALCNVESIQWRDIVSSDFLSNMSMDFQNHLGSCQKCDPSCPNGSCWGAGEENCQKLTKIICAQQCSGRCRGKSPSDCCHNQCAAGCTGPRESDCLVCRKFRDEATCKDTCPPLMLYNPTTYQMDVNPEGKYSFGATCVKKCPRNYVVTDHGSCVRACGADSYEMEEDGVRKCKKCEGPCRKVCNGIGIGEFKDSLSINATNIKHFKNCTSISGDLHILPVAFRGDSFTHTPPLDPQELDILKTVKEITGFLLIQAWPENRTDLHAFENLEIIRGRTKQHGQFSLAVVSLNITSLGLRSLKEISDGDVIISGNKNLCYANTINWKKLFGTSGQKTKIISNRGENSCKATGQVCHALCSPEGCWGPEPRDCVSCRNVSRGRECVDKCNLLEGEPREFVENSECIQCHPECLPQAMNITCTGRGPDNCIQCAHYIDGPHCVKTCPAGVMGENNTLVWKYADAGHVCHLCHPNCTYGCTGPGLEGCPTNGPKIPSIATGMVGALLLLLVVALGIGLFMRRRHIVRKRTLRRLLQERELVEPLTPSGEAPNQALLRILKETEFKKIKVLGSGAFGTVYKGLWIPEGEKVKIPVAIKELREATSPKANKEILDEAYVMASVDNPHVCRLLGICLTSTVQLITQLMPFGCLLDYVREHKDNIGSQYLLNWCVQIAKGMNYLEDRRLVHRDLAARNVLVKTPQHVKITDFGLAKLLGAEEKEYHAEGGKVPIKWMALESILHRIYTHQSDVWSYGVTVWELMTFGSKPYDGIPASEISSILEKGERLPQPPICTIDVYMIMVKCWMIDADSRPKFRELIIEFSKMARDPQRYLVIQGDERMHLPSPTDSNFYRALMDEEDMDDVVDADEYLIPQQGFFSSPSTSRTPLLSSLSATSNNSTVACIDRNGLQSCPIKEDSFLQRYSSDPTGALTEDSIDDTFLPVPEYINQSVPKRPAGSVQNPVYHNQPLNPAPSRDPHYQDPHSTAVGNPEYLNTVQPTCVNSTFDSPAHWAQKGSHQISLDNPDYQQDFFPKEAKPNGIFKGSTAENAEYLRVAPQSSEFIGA

Consider `Cc1ccnc(NC(=O)c2ccc(Oc3ccnc4[nH]nc(N[C@@H]5CCCN(C(=O)C6(C)CCNCC6)C5)c34)cc2)c1` [compound 104, 4-[(3-{[(3R)-1-(4-methylpiperidine-4-carbonyl)piperidin-3-yl]amino}-1H-pyrazolo[3,4-b]pyridin-4-yl)oxy]-N-(4-methylpyridin-2-yl)benzamide], for which the IC50 in experiment [1] is less than 100 nM; in experiment [2], 100 to 1000 nM; in experiment [3] it was 1000 to 10000 nM; in experiment [4] it was more than 10000 nM.
For the molecule `Cc1ccnc(NC(=O)c2ccc(Oc3ccnc4[nH]nc(N[C@@H]5CCCN(C(=O)C6CCOCC6)C5)c34)cc2)c1` [compound 105, N-(4-methylpyridin-2-yl)-4-[(3-{[(3R)-1-(oxane-4-carbonyl)piperidin-3-yl]amino}-1H-pyrazolo[3,4-b]pyridin-4-yl)oxy]benzamide], the IC50 in experiment [1] is less than 100 nM; in experiment [2] it was 1000 to 10000 nM; in experiment [3], more than 10000 nM; in experiment [4], more than 10000 nM.
Regarding `Cc1ccnc(NC(=O)c2ccc(Oc3ccnc4[nH]nc(N[C@@H]5CCCN(C(=O)N(C)C)C5)c34)cc2)c1` [compound 106, (3R)-N,N-dimethyl-3-[(4-{4-[(4-methylpyridin-2-yl)carbamoyl]phenoxy}-1H-pyrazolo[3,4-b]pyridin-3-yl)amino]piperidine-1-carboxamide], the IC50 is less than 100 nM in experiment [1], 100 to 1000 nM in experiment [2], 1000 to 10000 nM in experiment [3] and more than 10000 nM in experiment [4].
As to `Cc1ccnc(NC(=O)c2ccc(Oc3ccnc4[nH]nc(N[C@@H]5CCCN(C(=O)C6CCCC6)C5)c34)cc2)c1` [compound 107, 4-[(3-{[(3R)-1-cyclopentanecarbonylpiperidin-3-yl]amino}-1H-pyrazolo[3,4-b]pyridin-4-yl)oxy]-N-(4-methylpyridin-2-yl)benzamide], the IC50 in experiment [1] is less than 100 nM; in experiment [2], 1000 to 10000 nM; in experiment [3] it was more than 10000 nM; in experiment [4], more than 10000 nM.
Consider `CCOC(=O)N1CCC[C@@H](Nc2n[nH]c3nccc(Oc4ccc(C(=O)Nc5cc(C)ccn5)cc4)c23)C1` [compound 108, ethyl (3R)-3-[(4-{4-[(4-methylpyridin-2-yl)carbamoyl]phenoxy}-1H-pyrazolo[3,4-b]pyridin-3-yl)amino]piperidine-1-carboxalate], for which the IC50 in experiment [1] was less than 100 nM; in experiment [2] it was 100 to 1000 nM; in experiment [3], 1000 to 10000 nM; in experiment [4], more than 10000 nM.
In the case of `Cc1ccnc(NC(=O)c2ccc(Oc3ccnc4[nH]nc(N[C@@H]5CCCN(C(=O)c6ccccc6)C5)c34)cc2)c1` [compound 109, 4-[(3-{[(3R)-1-benzoylpiperidin-3-yl]amino}-1H-pyrazolo[3,4-b]pyridin-4-yl)oxy]-N-(4-methylpyridin-2-yl)benzamide], the IC50 in experiment [1] is less than 100 nM; in experiment [2], 1000 to 10000 nM; in experiment [3], more than 10000 nM; in experiment [4], more than 10000 nM.
As to `Cc1ccnc(NC(=O)c2ccc(Oc3ccnc4[nH]nc(N[C@@H]5CCCN(C(=O)c6ccccn6)C5)c34)cc2)c1` [compound 110, N-(4-methylpyridin-2-yl)-4-[(3-{[(3R)-1-(pyridine-2-carbonyl)piperidin-3-yl]amino}-1H-pyrazolo[3,4-b]pyridin-4-yl)oxy]benzamide], the IC50 in experiment [1] is less than 100 nM; in experiment [2], 1000 to 10000 nM; in experiment [3] it was more than 10000 nM; in experiment [4], more than 10000 nM.
As to `CC1(C(=O)N2CCC[C@@H](Nc3n[nH]c4nccc(Oc5ccc(C(=O)Nc6ccccn6)cc5)c34)C2)COC1` [compound 111, 4-[(3-{[(3R)-1-(3-methyloxetane-3-carbonyl)piperidin-3-yl]amino}-1H-pyrazolo[3,4-b]pyridin-4-yl)oxy]-N-(pyridin-2-yl)benzamide], the IC50 was less than 100 nM in experiment [1], 1000 to 10000 nM in experiment [2], more than 10000 nM in experiment [3] and more than 10000 nM in experiment [4].
Consider `CC1(C(=O)N2CCC[C@@H](Nc3n[nH]c4nccc(Oc5ccc(C(=O)Nc6ccccn6)cc5)c34)C2)CCOCC1` [compound 112, 4-[(3-{[(3R)-1-(4-methyloxane-4-carbonyl)piperidin-3-yl]amino}-1H-pyrazolo[3,4-b]pyridin-4-yl)oxy]N-(pyridin-2-yl)benzamide], for which the IC50 was less than 100 nM in experiment [1], 1000 to 10000 nM in experiment [2], more than 10000 nM in experiment [3] and more than 10000 nM in experiment [4].
In the case of `Cc1cccc(NC(=O)c2ccc(Oc3ccnc4[nH]nc(N[C@@H]5CCCN(C(=O)C6(C)COC6)C5)c34)cc2)n1` [compound 113, 4-[(3-{[(3R)-1-(3-methyloxetane-3-carbonyl)piperidin-3-yl]amino}-1H-pyrazolo[3,4-b]pyridin-4-yl)oxy]-N-(6-methylpyridin-2-yl)benzamide], the IC50 was 100 to 1000 nM in experiment [1], 1000 to 10000 nM in experiment [2], more than 10000 nM in experiment [3] and more than 10000 nM in experiment [4].
As to `Cc1cccc(NC(=O)c2ccc(Oc3ccnc4[nH]nc(N[C@@H]5CCCN(C(=O)C6(C)CCOCC6)C5)c34)cc2)n1` [compound 114, 4-[(3-{[(3R)-1-(4-methyloxane-4-carbonyl)piperidin-3-yl]amino}-1H-pyrazolo[3,4-b]pyridin-4-yl)oxy]-N-(6-methylpyridin-2-yl)benzamide], the IC50 was 100 to 1000 nM in experiment [1], 1000 to 10000 nM in experiment [2], more than 10000 nM in experiment [3] and more than 10000 nM in experiment [4].
`Cc1ccnc(NC(=O)c2ccc(Oc3ccnc4[nH]nc(N[C@@H]5CCCN(C(=O)[C@@H]6CCOC6)C5)c34)cc2)c1` [compound 115, N-(4-methylpyridin-2-yl)-4-[(3-{[(3R)-1-[(3R)-oxolane-3-carbonyl]piperidin-3-yl]amino}-1H-pyrazolo[3,4-b]pyridin-4-yl)oxy]benzamide]: the IC50 in experiment [1] is less than 100 nM; in experiment [2] it was 100 to 1000 nM; in experiment [3] it was more than 10000 nM; in experiment [4] it was more than 10000 nM.
In the case of `Cc1ccnc(NC(=O)c2ccc(Oc3ccnc4[nH]nc(N[C@@H]5CCCN(C(=O)[C@H]6CCOC6)C5)c34)cc2)c1` [compound 116, N-(4-methylpyridin-2-yl)-4-[(3-{[(3R)-1-[(3S)-oxolane-3-carbonyl]piperidin-3-yl]amino}-1H-pyrazolo[3,4-b]pyridin-4-yl)oxy]benzamide], the IC50 was less than 100 nM in experiment [1], 100 to 1000 nM in experiment [2], 1000 to 10000 nM in experiment [3] and more than 10000 nM in experiment [4].
With `Cc1ccnc(NC(=O)c2ccc(Oc3ccnc4[nH]nc(N[C@@H]5CCCN(C(=O)[C@@H]6CCCO6)C5)c34)cc2)c1` [compound 117, N-(4-methylpyridin-2-yl)-4-[(3-{[(3R)-1-[(2S)-oxolane-2-carbonyl]piperidin-3-yl]amino}-1H-pyrazolo[3,4-b]pyridin-4-yl)oxy]benzamide], the IC50 was less than 100 nM in experiment [1], more than 10000 nM in experiment [2], more than 10000 nM in experiment [3] and 1000 to 10000 nM in experiment [4].
As for `Cc1ccnc(NC(=O)c2ccc(Oc3ccnc4[nH]nc(N[C@@H]5CCCN(C(=O)CCN(C)C)C5)c34)cc2)c1` [compound 118, 4-[(3-{[(3R)-1-[3-(dimethylamino)propanoyl]piperidin-3-yl]amino}-1H-pyrazolo[3,4-b]pyridin-4-yl)oxy]-N-(4-methylpyridin-2-yl)benzamide], the IC50 in experiment [1] was less than 100 nM; in experiment [2] it was less than 100 nM; in experiment [3], 1000 to 10000 nM; in experiment [4] it was more than 10000 nM.
Consider `COCCC(=O)N1CCC[C@@H](Nc2n[nH]c3nccc(Oc4ccc(C(=O)Nc5cc(C)ccn5)cc4)c23)C1` [compound 119, 4-[(3-{[(3R)-1-(3-methoxypropanoyl)piperidin-3-yl]amino}-1H-pyrazolo[3,4-b]pyridin-4-yl)oxy]-N-(4-methylpyridin-2-yl)benzamide], for which the IC50 in experiment [1] was less than 100 nM; in experiment [2], 100 to 1000 nM; in experiment [3] it was 1000 to 10000 nM; in experiment [4], more than 10000 nM.
